Results as given in patent US5654290A, “Polyunsaturated fatty acid based drugs” (Institut National de la Sante et de la Recherche Medicale, priority 1992, dated 1997).
“And” between values parts separate entries of the source, which are not always exact repeats. Identical values can stand only once. Like-named read-outs stand apart in the source and are kept apart here.

Columns and labels:
[1] = biological target: T1, TXA2 /PGH2 receptor of the platelet membranes (Homo sapiens, UniProt P21731); experiment: Specific binding of tritiated SQ29,548 to the TXA2/PGH2 receptor of platelet membranes whose PC's or PE's are enriched in 18:2n-6 or DHA; conditions: for effect on the TXA2 /PGH2 receptor (dissociation constant of SQ29.548): platelet membranes enriched, in words
T1 construct: TXA2 /PGH2 receptor, to platelet membranes whose PC's or PE's are enriched either in 18:2n-6 or in DHA; from tissue; host or cells: platelet membranes (phospholipids exchanged with maize or endogenous platelet transfer protein)
T1 sequence (P21731 1-343): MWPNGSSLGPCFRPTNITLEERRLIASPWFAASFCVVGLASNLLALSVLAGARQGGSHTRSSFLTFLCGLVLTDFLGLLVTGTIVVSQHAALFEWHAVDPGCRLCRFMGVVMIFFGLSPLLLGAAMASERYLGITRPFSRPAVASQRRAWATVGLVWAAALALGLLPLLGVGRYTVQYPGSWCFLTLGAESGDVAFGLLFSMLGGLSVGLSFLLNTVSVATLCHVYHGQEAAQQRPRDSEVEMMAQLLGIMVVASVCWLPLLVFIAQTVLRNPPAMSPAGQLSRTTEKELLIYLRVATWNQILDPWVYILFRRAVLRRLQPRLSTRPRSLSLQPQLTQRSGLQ
Experimental: The diacyl-glycerophosphocholines of the platelet membranes were replaced either with 1-palmitoyl-2-docosa-hexaenoyl-glycerophosphocholine (bars with vertical stripes, "22:6n-3"), or with 1-palmitoyl-2-linoloyl-glycerophosphocholine (bars with horizontal stripes, "18:2n-6"), using the endogenous transfer protein of the platelets which is specific for the phosphatidylinositols and phosphatidylcholines. The control platelet membranes (black bars, "control") are obtained by incubation without addition of phospholipids. The data for the graph represent the mean±S.D. of three independent tests.
The diacyl-glycerophosphoethanolamines of the platelet membranes were replaced either with 1-palmitoyl-2-docosahexaenoyl-glycerophosphoethanolamine (bars with vertical stripes, "22:6n-3"), or with 1-palmitoyl-2-linoloyl-glycerophosphoethanolamine (bars with horizontal stripes "18:2n-6"), using the lipid transfer protein purified from maize. The control platelet membranes (black bars, "control") are obtained by incubation without addition of phospholipids. The data for the graph represent the mean±S.D. of three independent tests.
Preparations of esterified DHA into various classes of phospholipids were carried out using phospholipid transfer proteins in order to enrich, in a specific manner, the phosphatidylcholines (PC) and the phosphatidylethanolamines (PE) of the platelet membranes in linoleic acid (18:2n-6) and in DHA (49). In particular, the transfer protein (PT), which is specific for the PC's and purified from bovine liver, was used to modify the composition of molecular species of the PC's of erythrocytes (49).
In the procedure used in the present example, the endogenous quantity of platelet phospholipids is not altered by the transfer carried out by means of the maize or platelet PT; nevertheless, the phospholipids were enriched in 18:2n-6 or in DHA.
The influence of the fatty acids on the TXA2 /PGH2 receptor was established by measuring the specific binding of tritiated SQ29,548, a competitive antagonist of the TXA2 /PGH2 receptor, to platelet membranes whose PC's or PE's are enriched either in 18:2n-6 or in DHA.

brain = experiment: Distribution of the radioactivity between the lipid classes of the brain after intravenous injection of lyso-PCDHA or non-esterified DHA; assay type: in vivo, rat; conditions: injection of non-esterified DHA
Description: (§1) The animal studied is a 20-day-old rat in which the cerebral lipid metabolism is at its peak.
(§2) The lyso-PC's are labelled on the fatty acid and the choline, attached to albumin and administered intravenously (50). […] It therefore appears that the lyso-PCDHA's attached to albumin constitute a particularly preferred form of supply of DHA to the developing brain.

kidney = experiment: Capture by the kidney, in rats, of lyso-PCDHA and non-esterified DHA; assay type: in vivo; conditions: 20-day-old rat, intravenous; lyso-PCDHA vs non-esterified DHA
Description: FIG. 3 represents the variation of the radio-activity recovered in the total lipids: A from the brain, B from the kidney, C from the heart and D from the liver, after injecting tritiated DHA in free form (black circle) or in the form of 2-DHA-1-lyso-PC (black triangle).
as §1, §2

[2] = individual test, platelet membranes, PC's enriched
[3] = mean of three tests, PC's enriched
[4] = individual test, platelet membranes, PE's enriched
[5] = individual test, platelet membranes, PE's enriched, read-out: Kd of SQ 29.548
[6] = mean of three tests, PE's enriched
[7] = mean of three tests, PE's enriched, read-out: Kd of SQ 29.548

## CCCCC/C=C\C/C=C\CCCCCCCC(=O)OC(COC(=O)CCCCCCCCCCCCCCC)COP(=O)([O-])OCC[N+](C)(C)C (stereo not shown) [PC 18:2n-6, 1-palmitoyl-2-linoloyl-glycerophosphocholine]
[1]; Kd of SQ 29.548, individual test, platelet membranes, PC's enriched
  Kd: 4.64 nM and 3.16 nM and 4.05 nM
[1]; Kd of SQ 29.548, mean of three tests, PC's enriched, (a) p < 0.05 compared with the control and with PC 18:2n6 for PC 22:6n-3
  Kd: 3.95 ± 0.75 nM
[1]; [2]
  Bmax of SQ 29.548: 1.83 pmol/mg prot. and 1.91 pmol/mg prot. and 2.41 pmol/mg prot.
  Hill Coefficient: 1.00 and 0.94 and 0.90
[1]; [3]
  Bmax of SQ 29.548: 2.05 ± 0.31 pmol/mg prot.
  Hill Coefficient: 0.95 ± 0.05
[1]
  effect on the TXA2 /PGH2 receptor (dissociation constant of SQ29.548): no effect on the receptor

## CC/C=C\C/C=C\C/C=C\C/C=C\C/C=C\C/C=C\CCC(=O)OC(COC(=O)CCCCCCCCCCCCCCC)COP(=O)([O-])OCC[N+](C)(C)C (stereo not shown) [PC 22:6n-3, 1-palmitoyl-2-docosahexaenoyl-glycerophosphocholine]
[1]; [2]
  Bmax of SQ 29.548: 2.94 pmol/mg prot. and 2.09 pmol/mg prot. and 2.40 pmol/mg prot.
  Hill Coefficient: 0.91 and 1.00 and 0.94
[1]; individual test, platelet membranes, PC's enriched, read-out: Kd of SQ 29.548
  Kd: 5.69 nM and 8.56 nM and 7.05 nM
[1]; [3]
  Bmax of SQ 29.548: 2.48 ± 0.43 pmol/mg prot.
  Hill Coefficient: 0.95 ± 0.05
[1]; mean of three tests, PC's enriched, (a) p < 0.05 compared with the control and with PC 18:2n6 for PC 22:6n-3, read-out: Kd of SQ 29.548
  Kd: 7.1 ± 1.44 nM
[1]
  effect on the TXA2 /PGH2 receptor (dissociation constant of SQ29.548): significantly increasing the dissociation constant of SQ29.548

## CCCCC/C=C\C/C=C\CCCCCCCC(=O)OC(COC(=O)CCCCCCCCCCCCCCC)COP(=O)(O)OCCN (stereo not shown) [PE 18:2n-6, 1-palmitoyl-2-linoloyl-glycerophosphoethanolamine]
[1]; [4]
  Bmax of SQ 29.548: 1.89 pmol/mg prot. and 2.26 pmol/mg prot. and 2.07 pmol/mg prot.
  Hill Coefficient: 0.94 and 1.00 and 1.05
[1]; [5]
  Kd: 3.11 nM and 4.31 nM and 4.92 nM
[1]; [6]
  Bmax of SQ 29.548: 2.07 ± 0.19 pmol/mg prot.
  Hill Coefficient: 1.00 ± 0.06
[1]; [7]
  Kd: 4.11 ± 0.92 nM
[1]
  effect on the TXA2 /PGH2 receptor (dissociation constant of SQ29.548): no effect on the receptor

## CC/C=C\C/C=C\C/C=C\C/C=C\C/C=C\C/C=C\CCC(=O)OC(COC(=O)CCCCCCCCCCCCCCC)COP(=O)(O)OCCN (stereo not shown) [PE 22:6n-3, 1-palmitoyl-2-docosahexaenoyl-glycerophosphoethanolamine]
[1]; [4]
  Bmax of SQ 29.548: 1.67 pmol/mg prot. and 1.99 pmol/mg prot. and 1.91 pmol/mg prot.
  Hill Coefficient: 0.95 and 1.02
[1]; [5]
  Kd: 2.92 nM and 4.61 nM and 4.63 nM
[1]; [6]
  Bmax of SQ 29.548: 1.86 ± 0.17 pmol/mg prot.
  Hill Coefficient: 1.00 ± 0.04
[1]; [7]
  Kd: 4.05 ± 0.98 nM
[1]
  effect on the TXA2 /PGH2 receptor (dissociation constant of SQ29.548): no effect on the receptor

## CC/C=C\C/C=C\C/C=C\C/C=C\C/C=C\C/C=C\CCC(=O)O [non-esterified DHA, docosahexaenoic acid, reference compound]
brain; 2.5 min
  radioactivity in LN + AG of the brain: 36.7 % of the radioactivity of the total lipids
  radioactivity in PC of the brain: 18.8 % of the radioactivity of the total lipids
  radioactivity in PE of the brain: 37.5 % of the radioactivity of the total lipids
  radioactivity in PI of the brain: 2.7 % of the radioactivity of the total lipids
  radioactivity in PS of the brain: 4.0 % of the radioactivity of the total lipids
brain; 5 min
  radioactivity in LN + AG of the brain: 19.0 % of the radioactivity of the total lipids
  radioactivity in PC of the brain: 23.2 % of the radioactivity of the total lipids
  radioactivity in PE of the brain: 48.1 % of the radioactivity of the total lipids
  radioactivity in PI of the brain: 5.1 % of the radioactivity of the total lipids
  radioactivity in PS of the brain: 4.6 % of the radioactivity of the total lipids
brain; 7.5 min
  radioactivity in LN + AG of the brain: 30.0 % of the radioactivity of the total lipids
  radioactivity in PC of the brain: 21.1 % of the radioactivity of the total lipids
  radioactivity in PE of the brain: 44.4 % of the radioactivity of the total lipids
  radioactivity in PI of the brain: 2.6 % of the radioactivity of the total lipids
  radioactivity in PS of the brain: 1.8 % of the radioactivity of the total lipids
brain; 8 min
  radioactivity in LN + AG of the brain: 31.6 % of the radioactivity of the total lipids
  radioactivity in PC of the brain: 19.6 % of the radioactivity of the total lipids
  radioactivity in PE of the brain: 40.7 % of the radioactivity of the total lipids
  radioactivity in PI of the brain: 3.8 % of the radioactivity of the total lipids
  radioactivity in PS of the brain: 4.3 % of the radioactivity of the total lipids
brain; 15 min
  radioactivity in LN + AG of the brain: 20.8 % of the radioactivity of the total lipids
  radioactivity in PC of the brain: 25.7 % of the radioactivity of the total lipids
  radioactivity in PE of the brain: 49.1 % of the radioactivity of the total lipids
  radioactivity in PI of the brain: 3 % of the radioactivity of the total lipids
  radioactivity in PS of the brain: 2.9 % of the radioactivity of the total lipids
brain; 30 min
  radioactivity in LN + AG of the brain: 20.4 % of the radioactivity of the total lipids
  radioactivity in PC of the brain: 24.8 % of the radioactivity of the total lipids
  radioactivity in PE of the brain: 48.4 % of the radioactivity of the total lipids
  radioactivity in PI of the brain: 3.4 % of the radioactivity of the total lipids
  radioactivity in PS of the brain: 2.9 % of the radioactivity of the total lipids
brain; 60 min
  radioactivity in LN + AG of the brain: 12.5 % of the radioactivity of the total lipids
  radioactivity in PC of the brain: 24.3 % of the radioactivity of the total lipids
  radioactivity in PE of the brain: 54.1 % of the radioactivity of the total lipids
  radioactivity in PI of the brain: 2.8 % of the radioactivity of the total lipids
  radioactivity in PS of the brain: 6.3 % of the radioactivity of the total lipids
kidney
  capture by the kidney: captures the two forms of supply in essentially the same manner
